Assay results reported in paper PMC10634346 (Cancer Research Communications, 2023).

Assays:
Type in all cases: cell-based, human
[1] = tested on: SU-DHL-4 and SU-DHL-10 cell lines; assay: RNA-seq differential gene expression in DLBCL cell lines; conditions: for PHF23 and TP53RK by RNA-seq (in words): 1 µmol/L, 4 hours
Method: Evaluation of the pharmacodynamic extent and duration of CDK9 inhibition were performed in vitro using the human DLBCL cell lines SU-DHL-4 and SU-DHL-10, harboring MYC amplification and MYC overexpression with P57T mutation, respectively. Cells were seeded 18 hours prior to treatment for 4 hours with one of three CDK9 inhibitors, enitociclib (0.25 and1 µmol/L), atuveciclib (1 µmol/L) or KB-0742 (1 µmol/L), cells were washed, and incubation continued until 48 hours posttreatment. Samples were collected before treatment (−4), immediately after treatment (0), and at 1, 2, 4, 8, 12, 16, 24, and 48 hours after washout for RNA sequencing (RNA-seq), qPCR, and Western blotting analyses. Total RNA was extracted from blood of patients and cell lines using RNeasy Plus Mini Kit (QIAGEN, #74136) and cDNA prepared with the Maxima First Strand cDNA Synthesis Kit for RT-PCR (Thermo Fisher Scientific, K1642) according to manufacturer's instructions. The integrity of purified total RNA was evaluated using an Agilent 2100 Bioanalyzer system and RNA 6000 Nano Kit (Agilent, #5067-1511). Differential gene expression analysis was performed (Fios Genomics) from RNA-seq data (Discovery Life Sciences). MYC and MCL1 mRNA levels were measured by qPCR in vitro and in vivo, using a Taqman qPCR system (Thermo Fisher Scientific), TaqMan Fast Universal PCR Master Mix (2X) no AmpErase (#4352042) and TaqMan probes for MYC (Hs00153408_m1) and MCL1 (Hs03043899_m1). RNA-seq data were analyzed using DESeq2 ([35]). RNA-seq data generated from the analysis of two cell lines treated with the three CDK9 inhibitors was analyzed to investigate the differences in gene expression levels between various posttreatment timepoints and the pretreatment samples. Quality control assessment and exploratory data analysis by principal component analysis (PCA) were done on raw counts and on normalized count data. Normalization of RNA-seq count data was done using trimmed mean of M-values normalization and transformed with voom, resulting in log2 counts per million with associated precision weights. […] Significance values (Padj) were adjusted for multiple testing, by controlling the FDR using the Benjamini–Hochberg procedure. […] RNA-seq data generated from blood samples taken from patients before and after their first dose (C1D1) or after multiple doses, before and after their third dose (C1D15) were analyzed and normalized using the same pipeline as cell lines for comparisons.

[2] = tested on: RNA polymerase II Ser2 phosphorylation (p-Ser2) in SU-DHL-10 cells; assay: In vitro washout, p-Ser2 Western blot, SU-DHL-10; conditions: 1 µmol/L, 4-hour treatment then washout
Method: (§1) Evaluation of the pharmacodynamic extent and duration of CDK9 inhibition were performed in vitro using the human DLBCL cell lines SU-DHL-4 and SU-DHL-10, harboring MYC amplification and MYC overexpression with P57T mutation, respectively. Cells were seeded 18 hours prior to treatment for 4 hours with one of three CDK9 inhibitors, enitociclib (0.25 and1 µmol/L), atuveciclib (1 µmol/L) or KB-0742 (1 µmol/L), cells were washed, and incubation continued until 48 hours posttreatment. Samples were collected before treatment (−4), immediately after treatment (0), and at 1, 2, 4, 8, 12, 16, 24, and 48 hours after washout for RNA sequencing (RNA-seq), qPCR, and Western blotting analyses.
(§2) The levels of p-Ser2, p-Ser5 and total RNA polymerase II, Myc, Mcl-1, cleaved PARP (cPARP), and cleaved Caspase 3 were assessed by Western blotting and quantified near-infrared detection and background corrected quantification of fluorescence intensity on an Odyssey Imaging System with IRDye secondary antibodies (LI-COR Biosciences). For quantification, the protein levels were normalized to GAPDH or HSP90, expressed as a ratio to DMSO or vehicle control at matched timepoints. The normalized relative protein levels of p-Ser2 were used for a treatment effect comparison by performing an ANOVA using PROC MIXED in SAS. The ANOVA model included treatment, timepoints and their interactions as fixed effects. The least square means (LSM), differences between the LSMs and associated P values were generated. The following primary antibodies were used: Rpb1 NTD (D8L4Y) rabbit antibody [Cell Signaling Technology (CST), #14958], anti-RNA polymerase II subunit B1 (phospho CTD Ser-2, clone 3E10) rat antibody (Merck, 04-1571-I), recombinant anti-c-MYC rabbit antibody (Y69; Abcam, #ab32072), MCL1 (D5V5L) rabbit antibody (CST, #39224), cleaved-PARP (Asp214) (E2T4K) mouse antibody (CST, #32563), HSP90 (C45G5) rabbit antibody (CST, #4877), and GAPDH mouse antibody (Zytomed Systems, #ZYT-RGM2-6C5).

[3] = tested on: MYC mRNA in SU-DHL-10 cells; assay: In vitro washout, MYC mRNA qPCR, SU-DHL-10; conditions: 1 µmol/L 4 h then washout, maintained for up to 16 hours after treatment
Method: (§3) Evaluation of the pharmacodynamic extent and duration of CDK9 inhibition were performed in vitro using the human DLBCL cell lines SU-DHL-4 and SU-DHL-10, harboring MYC amplification and MYC overexpression with P57T mutation, respectively. Cells were seeded 18 hours prior to treatment for 4 hours with one of three CDK9 inhibitors, enitociclib (0.25 and1 µmol/L), atuveciclib (1 µmol/L) or KB-0742 (1 µmol/L), cells were washed, and incubation continued until 48 hours posttreatment. Samples were collected before treatment (−4), immediately after treatment (0), and at 1, 2, 4, 8, 12, 16, 24, and 48 hours after washout for RNA sequencing (RNA-seq), qPCR, and Western blotting analyses. Total RNA was extracted from blood of patients and cell lines using RNeasy Plus Mini Kit (QIAGEN, #74136) and cDNA prepared with the Maxima First Strand cDNA Synthesis Kit for RT-PCR (Thermo Fisher Scientific, K1642) according to manufacturer's instructions. The integrity of purified total RNA was evaluated using an Agilent 2100 Bioanalyzer system and RNA 6000 Nano Kit (Agilent, #5067-1511). Differential gene expression analysis was performed (Fios Genomics) from RNA-seq data (Discovery Life Sciences). MYC and MCL1 mRNA levels were measured by qPCR in vitro and in vivo, using a Taqman qPCR system (Thermo Fisher Scientific), TaqMan Fast Universal PCR Master Mix (2X) no AmpErase (#4352042) and TaqMan probes for MYC (Hs00153408_m1) and MCL1 (Hs03043899_m1). RNA-seq data were analyzed using DESeq2 ([35]).

[4] = tested on: Myc and Mcl-1 protein in SU-DHL-4 cells; assay: In vitro washout, Myc and Mcl-1 protein Western blot, SU-DHL-4; conditions: 0.25 µmol/L enitociclib, atuveciclib (1 µmol/L)
Method: as §1
(§4) The levels of p-Ser2, p-Ser5 and total RNA polymerase II, Myc, Mcl-1, cleaved PARP (cPARP), and cleaved Caspase 3 were assessed by Western blotting and quantified near-infrared detection and background corrected quantification of fluorescence intensity on an Odyssey Imaging System with IRDye secondary antibodies (LI-COR Biosciences). For quantification, the protein levels were normalized to GAPDH or HSP90, expressed as a ratio to DMSO or vehicle control at matched timepoints. The normalized relative protein levels of p-Ser2 were used for a treatment effect comparison by performing an ANOVA using PROC MIXED in SAS. The ANOVA model included treatment, timepoints and their interactions as fixed effects. […]

[5] = tested on: RNA polymerase II Ser2 phosphorylation (p-Ser2) in SU-DHL-4 cells; assay: In vitro washout, p-Ser2 Western blot, SU-DHL-4; conditions: 1 µmol/L, 4-hour treatment then washout
Method: as §1, §2

[6] = tested on: MCL1 mRNA in SU-DHL-10 cells; assay: In vitro washout, MCL1 mRNA qPCR, SU-DHL-10; conditions: 1 µmol/L 4 h then washout, maintained for up to 16 hours after treatment
Method: as §3

[7] = tested on: cPARP in SU-DHL-10 cells; assay: In vitro washout, cPARP Western blot, SU-DHL-10; conditions: 1 µmol/L, 4 h treatment then washout
Method: as §1, §4

COc1cc(F)ccc1-c1ncnc(Nc2cccc(C[S@](C)(=N)=O)c2)n1 [atuveciclib, reference compound]
PHF23 and TP53RK by RNA-seq (in words) [1]: not
MCL1 mRNA by RNA-seq (in words) ([1]; 4 hours treatment, in vitro): downregulation is observed but not statistically significant
MYC mRNA by RNA-seq (in words) ([1]; 4 hours treatment, in vitro): statistically significantly downregulated
ZPF36 by RNA-seq (in words) ([1]; 4 hours treatment, in vitro): significantly downmodulated
p-Ser2 inhibition (in words) [2]: only in the presence of the treatment compound and not after washout
depletion of MYC mRNA levels [3]: approximately 50%
sustained Myc and Mcl-1 protein depletion for 48 hours (in words) [4]: this was achieved
decrease of p-Ser2 levels [5]: ~50%
duration of p-Ser2 decrease [5]: up to 16 hours
depletion of MCL1 mRNA levels [6]: approximately 50%

CCC(CC)c1cc(N[C@H]2CC[C@H](N)C2)n2nccc2n1 [KB-0742]
PHF23 and TP53RK by RNA-seq (in words) [1]: not
MCL1 mRNA by RNA-seq (in words) ([1]; 4 hours treatment, in vitro): upregulated
MYC mRNA by RNA-seq (in words) ([1]; 4 hours treatment, in vitro): not statistically significant
effect on cPARP (in words) [7]: no effect
p-Ser2 inhibition (in words) [2]: only in the presence of the treatment compound and not after washout
depletion of MYC mRNA levels [3]: approximately 50%
decrease of p-Ser2 levels [5]: 50%
duration of p-Ser2 decrease [5]: up to 12 hours
depletion of MCL1 mRNA levels [6]: approximately 50%
